{
  "source": "paper PMC6060247",
  "about": "“Disruption of Amino Acid Homeostasis by Novel ASCT2 Inhibitors Involves Multiple Targets” (Frontiers in Pharmacology, 2018)",
  "key": {"LAT1 (SLC7A5)": {"target": "T1, LAT1 (SLC7A5) (Rattus norvegicus, UniProt Q63016)", "T1 construct": "with human 4F2hc", "T1 sequence (Q63016 whole entry)": "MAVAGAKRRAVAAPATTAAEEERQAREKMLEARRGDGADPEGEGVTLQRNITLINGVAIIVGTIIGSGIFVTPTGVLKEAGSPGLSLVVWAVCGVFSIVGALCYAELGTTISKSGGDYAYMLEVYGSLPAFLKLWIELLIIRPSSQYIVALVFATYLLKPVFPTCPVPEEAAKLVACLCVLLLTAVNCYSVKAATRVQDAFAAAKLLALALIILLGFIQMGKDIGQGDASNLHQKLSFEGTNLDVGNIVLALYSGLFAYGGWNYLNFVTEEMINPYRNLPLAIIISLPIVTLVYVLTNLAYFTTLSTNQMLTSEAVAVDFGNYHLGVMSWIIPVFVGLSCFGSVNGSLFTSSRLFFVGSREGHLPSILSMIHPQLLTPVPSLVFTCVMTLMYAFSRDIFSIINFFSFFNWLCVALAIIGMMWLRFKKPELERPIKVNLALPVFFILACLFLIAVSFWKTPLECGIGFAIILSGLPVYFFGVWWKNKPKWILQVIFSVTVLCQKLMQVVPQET", "T1 sequence (P08195 103-630 partner)": "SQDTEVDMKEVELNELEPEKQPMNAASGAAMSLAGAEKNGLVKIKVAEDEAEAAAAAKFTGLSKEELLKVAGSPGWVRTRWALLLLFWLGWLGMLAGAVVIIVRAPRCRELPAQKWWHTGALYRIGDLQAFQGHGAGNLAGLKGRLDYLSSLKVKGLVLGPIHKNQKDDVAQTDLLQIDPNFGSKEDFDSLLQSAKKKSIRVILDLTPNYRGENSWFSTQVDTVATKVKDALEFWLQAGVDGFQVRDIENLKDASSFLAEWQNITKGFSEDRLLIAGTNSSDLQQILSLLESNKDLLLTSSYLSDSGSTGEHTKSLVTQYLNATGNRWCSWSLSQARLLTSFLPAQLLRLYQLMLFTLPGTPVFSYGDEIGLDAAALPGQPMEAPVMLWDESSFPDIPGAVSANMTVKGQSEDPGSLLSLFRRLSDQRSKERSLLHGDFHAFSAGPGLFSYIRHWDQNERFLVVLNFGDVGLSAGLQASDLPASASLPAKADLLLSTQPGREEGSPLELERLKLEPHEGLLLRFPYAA", "experiment": "isoleucine uptake in Xenopus laevis oocytes expressing h4F2hc/rLAT1", "format": "cell-based"}, "SNAT1 (SLC38A1)": {"target": "T2, SNAT1 (SLC38A1) (Homo sapiens, UniProt Q9H2H9)", "T2 sequence (Q9H2H9 1-487)": "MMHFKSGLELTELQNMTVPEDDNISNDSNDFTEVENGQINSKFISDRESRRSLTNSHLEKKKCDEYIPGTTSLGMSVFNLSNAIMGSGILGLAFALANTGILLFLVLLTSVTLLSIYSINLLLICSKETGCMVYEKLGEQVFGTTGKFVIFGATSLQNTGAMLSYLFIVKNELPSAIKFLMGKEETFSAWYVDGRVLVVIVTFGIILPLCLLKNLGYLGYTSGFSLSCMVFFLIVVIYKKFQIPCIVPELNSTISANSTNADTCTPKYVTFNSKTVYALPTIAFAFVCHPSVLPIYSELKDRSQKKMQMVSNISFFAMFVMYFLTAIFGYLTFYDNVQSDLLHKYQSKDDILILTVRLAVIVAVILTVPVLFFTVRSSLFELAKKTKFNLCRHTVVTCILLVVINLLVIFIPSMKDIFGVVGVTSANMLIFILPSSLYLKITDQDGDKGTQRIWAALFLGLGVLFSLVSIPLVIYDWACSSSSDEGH", "experiment": "glutamine uptake in Xenopus laevis oocytes expressing hSNAT1", "format": "cell-based"}},
  "data": [
    {"molecule": "CC[C@H](C)[C@H](N)C(=O)O", "note": "[isoleucine]", "values": [
      {"measurement": "isoleucine uptake in Xenopus laevis oocytes expressing h4F2hc/rLAT1", "setting": "LAT1 (SLC7A5)", "value": "isoleucine transport was used to measure h4F2hc/rLAT1 activity"}
    ]},
    {"molecule": "NC(=O)CC[C@H](N)C(=O)O", "note": "[glutamine]", "values": [
      {"measurement": "glutamine uptake in Xenopus laevis oocytes expressing hSNAT1", "setting": "SNAT1 (SLC38A1)", "value": "Glutamine uptake was used to measure hSNAT1, hSNAT2, and hASCT2 activity"}
    ]}
  ]
}
